Laboratory results as given in paper PMC11674187, “Inhibitory Effects of Cenobamate on Multiple Human Cardiac Ion Channels and Possible Arrhythmogenic Consequences” (Biomolecules, 2024).
Values joined by “and” are separate entries in the source; they are usually repeats but may differ in a detail not shown here. Equal values may be shown once. Read-outs that look alike come from different tables or passages of the source.

Key:
[1] = molecular target: T1, hCav1.2 (α1c + β2 + α2δ1) (Homo sapiens, UniProt Q13936); assay: Whole-cell patch-clamp on HEK293T cells, ICaL; type: cell-based
T1 construct: host or cells: HEK293T
Experimental: (§1) Experiments were performed on HEK293T cell lines with persistent/inducible expression of different human cardiac ion channel isoforms: hNav1.5 and hKv7.1 + minK (Anaxon AG, Bern, Switzerland), hCav1.2 (α1c + β2 + α2δ1) (B’SYS GmbH, Witterswil, Switzerland), and hKv11.1 (hERG) (Cytocentrics Bioscience GmbH, Rostock, Germany). The cell lines were grown in standard conditions (37 °C, 5% CO2, 90% humidity) in DMEM:F12 medium (D8900, Sigma-Aldrich, Burlington, MA, USA) buffered with 15 mM HEPES, containing 3.15 g/L D-glucose and 0.055 g/L sodium pyruvate, supplemented with 1.2 g/L sodium bicarbonate, 10% fetal bovine serum (F2442, Sigma-Aldrich, Burlington, MA, USA), 2 mM L-glutamine (G7513, Sigma-Aldrich, Burlington, MA, USA), 1% penicillin–streptomycin (P4333, Sigma-Aldrich, Burlington, MA, USA), and with specific antibiotics for selection of transfected cells or induction of gene expression according to manufacturers’ instructions. The medium was changed every 2–3 days and the cells were passed weekly upon detachment with trypsin–EDTA solution. All cell culture media and solutions were sterile filtered with 0.22 μm polyvinylidene fluoride filters. Ncyte® vCardiomyocytes (Ncardia, Leiden, The Netherlands) were cultured in 24-well plates precoated with bovine fibronectin, following manufacturer’s instructions. For the experiments, cardiomyocytes were detached as described previously and plated on ϕ 10 mm glass coverslips, like the other cell lines.
(§2) Manual whole-cell patch-clamp experiments were performed at room temperature, with equipment as described in previous studies. Pipettes were pulled from Clark borosilicate glass capillaries with inner filament (GC150F-10, Harvard Apparatus, Holliston, MA, USA) and had typical resistances of 2–3 MΩ. Recordings were performed with a WPC-100 resistive feedback amplifier (ESF electronic, Göttingen, Germany) or an Axopatch 200B amplifier (Axon Instruments—Molecular Devices, San Jose, CA, USA) connected to a Digidata 1322A interface driven by the pClamp 8.2 Clampex module (Axon Instruments, part of Molecular Devices, San Jose, CA, USA). For different types of ion channel, we applied specific voltage-clamp protocols as follows: • - For hERG, a standard two-step activation protocol was used: holding at −70 mV, a 100 ms step at −50 mV used as current reference for measurements, a 2 s depolarizing step at +40 mV, followed by a 2 s step at −50 mV to elicit the peak hERG current by rapid recovery from inactivation, repeated sweeps at 10 s intervals, plus specific protocols to assess the voltage dependence of activation and inactivation, as described in Thomet et al., 2021 [11]. • - For hKv7.1 + minK, a general two-step activation protocol was used: holding at −110 mV, a 250 ms step at −80 mV with a brief (50 ms) step at −90 mV at the middle to monitor seal quality, a 3000 ms depolarizing step at +60 mV, followed by a 1000 ms step at −50 mV; repeated sweeps at 20 s intervals. • - For hCav1.2, a pharmacology protocol with holding at −80 mV, a first 100 ms step at −50 mV and a second 200 ms step at 0 mV, repeated sweeps at 20 s intervals with drug application after 5 sweeps if current levels were steady, plus an activation–inactivation protocol with holding at −80 mV, 1000 ms depolarizing steps from −80 to +50 mV in 10 mV increments, followed by 250 ms steps at +10 mV and a return to −80 mV; 14 sweeps at 20 s intervals. • - For hNav1.5, multiple voltage protocols were used, including the following: • - A standard pharmacology protocol with holding at −90 mV, a 20 ms step at −110 mV for seal monitoring, a 40 ms activation step at −10 mV, and repeated sweeps at 1 s intervals. […]

hNav1.5 = molecular target: T2, hNav1.5 (Homo sapiens, UniProt Q14524); assay: Whole-cell patch-clamp on HEK293T cells, late INa (CiPA-like protocol with ATX-II); type: cell-based
T2 construct: host or cells: HEK293T
Experimental: as §1, §2

T1 sequence (Q13936 whole entry): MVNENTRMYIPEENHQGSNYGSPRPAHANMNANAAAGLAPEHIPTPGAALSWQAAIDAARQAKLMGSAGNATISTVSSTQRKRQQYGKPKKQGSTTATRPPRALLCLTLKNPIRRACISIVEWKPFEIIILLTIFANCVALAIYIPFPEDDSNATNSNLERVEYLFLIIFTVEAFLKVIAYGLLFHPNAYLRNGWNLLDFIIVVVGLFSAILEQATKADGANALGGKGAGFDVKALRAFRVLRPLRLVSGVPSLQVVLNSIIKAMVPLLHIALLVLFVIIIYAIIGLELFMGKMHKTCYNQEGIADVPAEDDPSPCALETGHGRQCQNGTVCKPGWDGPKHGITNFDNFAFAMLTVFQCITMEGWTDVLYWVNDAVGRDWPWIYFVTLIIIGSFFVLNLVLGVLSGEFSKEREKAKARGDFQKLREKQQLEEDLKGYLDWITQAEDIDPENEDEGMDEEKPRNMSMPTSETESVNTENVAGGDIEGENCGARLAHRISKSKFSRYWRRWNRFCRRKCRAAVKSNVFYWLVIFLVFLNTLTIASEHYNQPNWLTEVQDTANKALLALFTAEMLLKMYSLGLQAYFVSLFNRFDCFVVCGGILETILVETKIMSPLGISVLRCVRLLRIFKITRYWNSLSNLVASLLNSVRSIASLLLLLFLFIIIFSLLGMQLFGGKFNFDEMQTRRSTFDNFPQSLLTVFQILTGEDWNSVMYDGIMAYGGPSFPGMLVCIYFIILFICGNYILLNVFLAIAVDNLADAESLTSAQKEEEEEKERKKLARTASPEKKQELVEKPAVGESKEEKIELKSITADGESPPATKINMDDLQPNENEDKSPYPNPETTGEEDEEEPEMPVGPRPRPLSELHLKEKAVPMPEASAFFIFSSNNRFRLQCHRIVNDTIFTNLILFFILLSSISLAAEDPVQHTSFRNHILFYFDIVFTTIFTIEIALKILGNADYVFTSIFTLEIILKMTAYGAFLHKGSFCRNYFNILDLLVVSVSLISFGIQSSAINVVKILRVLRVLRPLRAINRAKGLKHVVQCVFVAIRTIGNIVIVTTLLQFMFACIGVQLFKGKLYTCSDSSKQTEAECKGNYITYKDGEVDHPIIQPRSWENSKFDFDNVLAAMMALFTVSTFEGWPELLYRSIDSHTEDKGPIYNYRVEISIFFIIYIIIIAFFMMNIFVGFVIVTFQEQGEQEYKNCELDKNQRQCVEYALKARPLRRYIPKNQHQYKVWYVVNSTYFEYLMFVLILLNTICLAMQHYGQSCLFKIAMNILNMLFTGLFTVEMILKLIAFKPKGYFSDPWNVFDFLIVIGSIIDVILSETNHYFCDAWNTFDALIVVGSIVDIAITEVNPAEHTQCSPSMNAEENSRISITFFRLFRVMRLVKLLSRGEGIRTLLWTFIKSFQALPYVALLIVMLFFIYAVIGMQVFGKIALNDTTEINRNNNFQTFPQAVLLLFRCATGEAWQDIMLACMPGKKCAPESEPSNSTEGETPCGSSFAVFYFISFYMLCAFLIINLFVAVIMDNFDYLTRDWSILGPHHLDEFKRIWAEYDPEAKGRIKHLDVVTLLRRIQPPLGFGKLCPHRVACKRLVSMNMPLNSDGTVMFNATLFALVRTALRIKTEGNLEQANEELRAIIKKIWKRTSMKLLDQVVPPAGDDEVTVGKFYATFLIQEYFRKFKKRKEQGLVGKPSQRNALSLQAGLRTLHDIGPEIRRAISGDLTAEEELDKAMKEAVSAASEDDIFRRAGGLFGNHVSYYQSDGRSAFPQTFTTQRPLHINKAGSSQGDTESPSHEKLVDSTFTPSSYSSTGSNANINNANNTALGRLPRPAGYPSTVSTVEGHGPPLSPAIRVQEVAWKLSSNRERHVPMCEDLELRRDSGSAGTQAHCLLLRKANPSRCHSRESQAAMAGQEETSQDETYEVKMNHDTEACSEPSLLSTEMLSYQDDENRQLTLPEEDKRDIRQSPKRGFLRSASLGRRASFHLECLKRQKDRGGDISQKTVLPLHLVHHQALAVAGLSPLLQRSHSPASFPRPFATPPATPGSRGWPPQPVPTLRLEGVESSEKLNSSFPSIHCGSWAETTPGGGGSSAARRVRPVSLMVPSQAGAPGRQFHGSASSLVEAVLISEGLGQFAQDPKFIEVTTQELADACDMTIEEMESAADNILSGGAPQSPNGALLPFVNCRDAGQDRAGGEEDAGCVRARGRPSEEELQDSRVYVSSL
T1 sequence (Q08289 whole entry partner): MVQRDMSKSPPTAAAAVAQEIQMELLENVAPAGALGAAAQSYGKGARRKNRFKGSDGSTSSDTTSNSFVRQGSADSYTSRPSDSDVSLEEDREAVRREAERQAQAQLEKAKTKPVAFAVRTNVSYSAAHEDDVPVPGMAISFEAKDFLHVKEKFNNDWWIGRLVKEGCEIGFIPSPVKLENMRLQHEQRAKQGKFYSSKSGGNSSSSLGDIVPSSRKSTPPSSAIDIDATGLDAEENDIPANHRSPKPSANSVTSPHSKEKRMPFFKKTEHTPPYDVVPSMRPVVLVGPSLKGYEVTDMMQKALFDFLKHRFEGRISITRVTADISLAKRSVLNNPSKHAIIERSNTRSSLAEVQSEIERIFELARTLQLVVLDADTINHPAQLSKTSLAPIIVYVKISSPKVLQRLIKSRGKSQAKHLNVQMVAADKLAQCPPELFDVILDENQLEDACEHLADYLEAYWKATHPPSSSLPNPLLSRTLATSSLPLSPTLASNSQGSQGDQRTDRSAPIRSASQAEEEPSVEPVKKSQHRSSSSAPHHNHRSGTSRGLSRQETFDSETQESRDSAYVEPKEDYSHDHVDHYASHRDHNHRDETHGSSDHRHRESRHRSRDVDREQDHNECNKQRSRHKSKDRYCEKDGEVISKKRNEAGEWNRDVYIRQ
T1 sequence (P54289 25-946 partner limits assumed): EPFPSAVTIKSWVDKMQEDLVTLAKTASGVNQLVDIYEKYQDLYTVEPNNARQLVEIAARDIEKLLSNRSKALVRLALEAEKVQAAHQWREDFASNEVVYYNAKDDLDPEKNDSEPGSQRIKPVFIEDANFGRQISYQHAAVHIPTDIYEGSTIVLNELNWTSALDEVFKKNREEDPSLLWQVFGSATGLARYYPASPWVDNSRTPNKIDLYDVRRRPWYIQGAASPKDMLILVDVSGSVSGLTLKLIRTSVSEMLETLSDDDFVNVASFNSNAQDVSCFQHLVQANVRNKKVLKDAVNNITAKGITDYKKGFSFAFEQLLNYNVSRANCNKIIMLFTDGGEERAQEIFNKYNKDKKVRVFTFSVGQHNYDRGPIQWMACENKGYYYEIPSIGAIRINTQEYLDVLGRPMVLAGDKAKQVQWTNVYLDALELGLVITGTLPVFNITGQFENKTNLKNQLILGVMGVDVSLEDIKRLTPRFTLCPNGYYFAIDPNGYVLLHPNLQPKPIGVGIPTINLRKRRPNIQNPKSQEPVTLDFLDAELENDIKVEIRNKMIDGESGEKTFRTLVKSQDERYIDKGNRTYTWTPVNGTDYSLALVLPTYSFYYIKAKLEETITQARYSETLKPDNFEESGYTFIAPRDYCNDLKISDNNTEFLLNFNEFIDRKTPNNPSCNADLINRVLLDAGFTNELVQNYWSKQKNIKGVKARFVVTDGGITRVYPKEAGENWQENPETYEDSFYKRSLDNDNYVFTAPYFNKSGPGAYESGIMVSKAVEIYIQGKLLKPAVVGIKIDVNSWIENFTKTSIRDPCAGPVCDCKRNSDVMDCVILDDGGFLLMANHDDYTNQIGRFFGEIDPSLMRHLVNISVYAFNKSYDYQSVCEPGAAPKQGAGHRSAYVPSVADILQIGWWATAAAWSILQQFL
T1 sequence (P54289 947-1103 partner limits assumed): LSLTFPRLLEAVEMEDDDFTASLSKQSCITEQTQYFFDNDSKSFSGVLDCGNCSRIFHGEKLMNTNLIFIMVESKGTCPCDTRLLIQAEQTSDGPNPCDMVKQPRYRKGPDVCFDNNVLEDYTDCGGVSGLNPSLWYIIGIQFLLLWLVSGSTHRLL

Question: What does the source list for NC(=O)O[C@@H](Cn1ncnn1)c1ccccc1Cl [cenobamate]?
Answer: inhibition at 20 µM ([1]; HEK-293T, cenobamate 20 µM, read-out: % ICaL inhibition, mean (Table S5)): 6.65%; inhibition at 100 µM ([1]; HEK-293T, cenobamate 100 µM, read-out: % ICaL inhibition, mean (Table S5)): 11.3%; inhibition at 100 µM ([1]; HEK-293T, cenobamate 100 µM, read-out: % ICaL inhibition, single experiments (Table S5)): 11.2%; inhibition at 200 µM ([1]; HEK-293T, cenobamate 200 µM, read-out: % ICaL inhibition, mean (Table S5)): 34.5%; inhibition at 200 µM ([1]; HEK-293T, cenobamate 200 µM, step at 0 mV, initial set, mean (SD), n = 4, read-out: average inhibition of peak ICaL amplitude): 39.3 ± 13.8%; inhibition at 400 µM ([1]; HEK-293T, cenobamate 400 µM, read-out: % ICaL inhibition, mean (Table S5)): 42%; inhibition at 400 µM ([1]; HEK-293T, cenobamate 400 µM, read-out: % ICaL inhibition, single experiments (Table S5)): 39%; inhibition at 1000 µM ([1]; HEK-293T, cenobamate 1000 µM, read-out: % ICaL inhibition, mean (Table S5)): 65.3%; IC50 ([1]; ICaLIC50 (model script), value entered in C++ script): 510 µM; IC50 ([1]; apparent IC50 for hCav1.2 (ICaL) inhibition, unitary Hill coefficient): 510 µM; % ICaL inhibition, single experiments (Table S5) ([1]; cenobamate 100 µM): 11.40% and 10.58% and 12.03%; average inhibition of peak ICaL amplitude ([1]; cenobamate 200 µM, step at 0 mV, initial set, mean (SD), n = 4): 39.26 ± 13.78%; % ICaL inhibition, single experiments (Table S5) ([1]; cenobamate 400 µM): 41.25% and 47.37% and 40.40%; % ICaL inhibition, single experiments (Table S5) ([1]; cenobamate 1000 µM): 77.36% and 58.39% and 76.52% and 52.87% and 61.56%; inhibition at 1 µM (hNav1.5; HEK-293T, cenobamate 1 µM, end of step at 0 mV, read-out: % INa inhibition (late), mean (Table S3)): 5.58%; inhibition at 10 µM (hNav1.5; HEK-293T, cenobamate 10 µM, read-out: % INa inhibition (late), mean (Table S3)): 25.4%; inhibition at 10 µM (hNav1.5; HEK-293T, cenobamate 10 µM, read-out: % INa inhibition (late), single experiments (Table S3)): 25.1%; inhibition at 40 µM (hNav1.5; HEK-293T, cenobamate 40 µM, read-out: % INa inhibition (late), mean (Table S3)): 49.3%; inhibition at 40 µM (hNav1.5; HEK-293T, cenobamate 40 µM, read-out: % INa inhibition (late), single experiments (Table S3)): 47.7%; inhibition at 100 µM (hNav1.5; HEK-293T, cenobamate 100 µM, read-out: % INa inhibition (late), mean (Table S3)): 79.5%; inhibition at 100 µM (hNav1.5; HEK-293T, cenobamate 100 µM, read-out: % INa inhibition (late), single experiments (Table S3)): 80.1%; inhibition at 200 µM (hNav1.5; HEK-293T, cenobamate 200 µM, read-out: % INa inhibition (late), mean (Table S3)): 94.4%; inhibition at 200 µM (hNav1.5; HEK-293T, cenobamate 200 µM, read-out: % INa inhibition (late), single experiments (Table S3)): 96.7%; IC50 (hNav1.5; INaLIC50 (model script), value entered in C++ script): 46.5 µM; IC50 (hNav1.5; apparent IC50 for late INa inhibition, ATX-II 20 nM or 100 nM, nH = 1): 46.5 µM; % INa inhibition (late), single experiments (Table S3) (hNav1.5; cenobamate 1 µM): 9.80% and 4.35% and 2.59%; % INa inhibition (late), single experiments (Table S3) (hNav1.5; cenobamate 10 µM): 27.99% and 16.75% and 31.85%; % INa inhibition (late), single experiments (Table S3) (hNav1.5; cenobamate 40 µM): 42.71% and 49.53% and 57.45%; % INa inhibition (late), single experiments (Table S3) (hNav1.5; cenobamate 100 µM): 91.98% and 72.79% and 79.43% and 73.06%; % INa inhibition (late), single experiments (Table S3) (hNav1.5; cenobamate 200 µM): 94.40% and 94.64% and 86.94% and 99.56%
